Test results as given in US9718819B2 (Merck Sharp & Dohme Corp., priority 2012, dated 2017).

Biological target: HIV-1 RT wild-type enzyme (Human immunodeficiency virus type 1 group M subtype B (isolate HXB2) (HIV-1), UniProt P04585)
Assay: HIV-1 reverse transcriptase inhibitory activity (RT polymerase assay)
Assay type: biochemical
Conditions: HIV-1 RT wild-type enzyme 83 pM; RNA-dependent DNA polymerase activity; read-out: IC50
Summary of the method: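 Enzyme and compound were preincubated 30 min at room temperature, then RNA/DNA hybrid (16.6 nM final; HCV-derived RNA, biotinylated primer) plus 2 μM dNTPs and 66.6 nM Ru-dUTP added, 90 min at 37 °C. Avidin capture and ECL counting; percent inhibition relative to DMSO (0%) and 1 μM efavirenz (100%), four-parameter IC50 fit.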

SMILES	IC50
N#Cc1cc(Cl)cc(Oc2c(C(F)(F)F)ncn(Cc3cc(-c4ccc(F)cc4F)c(=O)[nH]n3)c2=O)c1 [Example 35, 3-chloro-5-((1-((5-(2,4-difluorophenyl)-6-oxo-1,6-dihydropyridazin-3-yl)methyl)-6-oxo-4-(trifluoromethyl)-1,6-dihydropyrimidin-5-yl)oxy)benzonitrile]	8 nM
COc1ccc(-c2cc(Cn3cnc(C(F)(F)F)c(Oc4cc(Cl)cc(C#N)c4)c3=O)n[nH]c2=O)cc1F [Example 52, 3-chloro-5-((1-((5-(3-fluoro-4-methoxyphenyl)-6-oxo-1,6-dihydropyridazin-3-yl)methyl)-6-oxo-4-(trifluoromethyl)-1,6-dihydropyrimidin-5-yl)oxy)benzonitrile]	4 nM
O=c1ccc(Cn2cnc(C(F)(F)F)c(Oc3cc(Cl)cc(C(F)(F)F)c3)c2=O)n[nH]1 [Example 21, 6-((5-(3-chloro-5-(trifluoromethyl)phenoxy)-6-oxo-4-(trifluoromethyl)pyrimidin-1(6H)-yl)methyl)pyridazin-3(2H)-one]	29 nM
COc1cc(Cn2cnc(C(F)(F)F)c(Oc3cc(Cl)cc(C#N)c3)c2=O)n[nH]c1=O [Example 106, 3-chloro-5-((1-((5-methoxy-6-oxo-1,6-dihydropyridazin-3-yl)methyl)-6-oxo-4-(trifluoromethyl)-1,6-dihydropyrimidin-5-yl)oxy)benzonitrile]	12 nM
N#Cc1cc(Cl)cc(Oc2c(C(F)(F)F)ncn(Cc3cc(-c4ccc(F)c(Cl)c4)c(=O)[nH]n3)c2=O)c1 [Example 34, 3-chloro-5-((1-((5-(3-chloro-4-fluorophenyl)-6-oxo-1,6-dihydropyridazin-3-yl)methyl)-6-oxo-4-(trifluoromethyl)-1,6-dihydropyrimidin-5-yl)oxy)benzonitrile]	7 nM
CC(F)(F)c1cc(Cn2cnc(C(F)F)c(Oc3cc(Cl)cc(C#N)c3)c2=O)c(=O)[nH]n1 [Example 179, 3-chloro-5-((1-((6-(1,1-difluoroethyl)-3-oxo-2,3-dihydropyridazin-4-yl)methyl)-4-(difluoromethyl)-6-oxo-1,6-dihydropyrimidin-5-yl)oxy)benzonitrile]	8 nM
N#Cc1cc(Cl)cc(Oc2c(C(F)(F)F)ncn(Cc3cc(-c4cccc(C#N)c4)c(=O)[nH]n3)c2=O)c1 [Example 54, 3-chloro-5-((1-((5-(3-cyanophenyl)-6-oxo-1,6-dihydropyridazin-3-yl)methyl)-6-oxo-4-(trifluoromethyl)-1,6-dihydropyrimidin-5-yl)oxy)benzonitrile]	8 nM
CNc1ncc(Cn2cnc(C(F)(F)F)c(Oc3cc(Cl)cc(C#N)c3)c2=O)c(=O)[nH]1 [Example 137, 3-chloro-5-((1-((2-(methylamino)-6-oxo-1,6-dihydropyrimidin-5-yl)methyl)-6-oxo-4-(trifluoromethyl)-1,6-dihydropyrimidin-5-yl)oxy)benzonitrile]	9 nM
CC(C)c1cc(Cn2cnc(C(F)(F)F)c(Oc3cc(Cl)cc(C#N)c3)c2=O)n[nH]c1=O [Example 10, 3-chloro-5-((1-((5-isopropyl-6-oxo-1,6-dihydropyridazin-3-yl)methyl)-6-oxo-4-(trifluoromethyl)-1,6-dihydropyrimidin-5-yl)oxy)benzonitrile]	7 nM
N#Cc1cc(Cl)cc(Oc2c(C(F)(F)F)ncn(Cc3cnc(-c4ccn[nH]4)[nH]c3=O)c2=O)c1 [Example 148, 3-chloro-5-((6-oxo-1-((6-oxo-2-(1H-pyrazol-5-yl)-1,6-dihydropyrimidin-5-yl)methyl)-4-(trifluoromethyl)-1,6-dihydropyrimidin-5-yl)oxy)benzonitrile]	9 nM
N#Cc1cc(Cl)cc(Oc2c(C(F)(F)F)ncn(Cc3cc(-c4ccc(Cl)cc4)c(=O)[nH]n3)c2=O)c1 [Example 28, 3-chloro-5-((1-((5-(4-chlorophenyl)-6-oxo-1,6-dihydropyridazin-3-yl)methyl)-6-oxo-4-(trifluoromethyl)-1,6-dihydropyrimidin-5-yl)oxy)benzonitrile]	5 nM
N#Cc1cc(Cl)cc(Oc2c(C(F)(F)F)ncn(Cc3cnc(-c4ccc(OC(F)(F)F)cc4)[nH]c3=O)c2=O)c1 [Example 153, 3-chloro-5-((6-oxo-1-((6-oxo-2-(4-(trifluoromethoxy)phenyl)-1,6-dihydropyrimidin-5-yl)methyl)-4-(trifluoromethyl)-1,6-dihydropyrimidin-5-yl)oxy)benzonitrile]	33 nM
N#Cc1cc(Cl)cc(Oc2c(C(F)(F)F)ncn(Cc3cc(C(O)C(F)(F)F)c(=O)[nH]n3)c2=O)c1 (centres unmarked) [Example 103, 3-chloro-5-((6-oxo-1-((6-oxo-5-(2,2,2-trifluoro-1-hydroxyethyl)-1,6-dihydropyridazin-3-yl)methyl)-4-(trifluoromethyl)-1,6-dihydropyrimidin-5-yl)oxy)benzonitrile]	74 nM
Cc1ncc(Cn2cnc(C(F)(F)F)c(Oc3cc(Cl)cc(C#N)c3)c2=O)c(=O)[nH]1 [Example 133, 3-chloro-5-((1-((2-methyl-6-oxo-1,6-dihydropyrimidin-5-yl)methyl)-6-oxo-4-(trifluoromethyl)-1,6-dihydropyrimidin-5-yl)oxy)benzonitrile]	8 nM
N#Cc1cc(Cl)cc(Oc2c(C(F)(F)F)ncn(Cc3cc(-c4cccc(Cl)c4)c(=O)[nH]n3)c2=O)c1 [Example 36, 3-chloro-5-((1-((5-(3-chlorophenyl)-6-oxo-1,6-dihydropyridazin-3-yl)methyl)-6-oxo-4-(trifluoromethyl)-1,6-dihydropyrimidin-5-yl)oxy)benzonitrile]	4 nM
N#Cc1cc(Cl)cc(Oc2c(C(F)(F)F)ncn(Cc3cc(-c4ccc(C(N)C(F)(F)F)cc4)c(=O)[nH]n3)c2=O)c1 (centres unmarked) [Example 89, 3-((1-((5-(4-(1-amino-2,2,2-trifluoroethyl)phenyl)-6-oxo-1,6-dihydropyridazin-3-yl)methyl)-6-oxo-4-(trifluoromethyl)-1,6-dihydropyrimidin-5-yl)oxy)-5-chlorobenzonitrile]	18 nM
N#Cc1cc(Oc2c(C(F)(F)F)ncn(Cc3ccc(=O)[nH]n3)c2=O)cc(C(F)(F)F)c1 [Example 20, 3-((6-oxo-1-((6-oxo-1,6-dihydropyridazin-3-yl)methyl)-4-(trifluoromethyl)-1,6-dihydropyrimidin-5-yl)oxy)-5-(trifluoromethyl) benzonitrile]	24 nM
N#Cc1cc(Cl)cc(Oc2c(C(F)(F)F)ncn(Cc3cc(-c4ccc(Cl)nc4)c(=O)[nH]n3)c2=O)c1 [Example 86, 3-chloro-5-((1-((5-(6-chloropyridin-3-yl)-6-oxo-1,6-dihydropyridazin-3-yl)methyl)-6-oxo-4-(trifluoromethyl)-1,6-dihydropyrimidin-5-yl)oxy)benzonitrile]	6 nM
Cc1ncn(Cc2cc(C(F)F)n[nH]c2=O)c(=O)c1Oc1cc(Cl)cc(C#N)c1 [Example 176, 3-chloro-5-((1-((6-(difluoromethyl)-3-oxo-2,3-dihydropyridazin-4-yl)methyl)-4-methyl-6-oxo-1,6-dihydropyrimidin-5-yl)oxy)benzonitrile]	6 nM
CC(=O)c1cc(Cn2cnc(C(F)(F)F)c(Oc3cc(Cl)cc(C#N)c3)c2=O)n[nH]c1=O [Example 105, 3-((1-((5-acetyl-6-oxo-1,6-dihydropyridazin-3-yl)methyl)-6-oxo-4-(trifluoromethyl)-1,6-dihydropyrimidin-5-yl)oxy)-5-chlorobenzonitrile]	19 nM
